From patent US11028103B2, “Derivatized 3-styryl-cephalosporins” (priority 2013, dated 2021) come the findings set out here.

Assay type in all cases: biochemical
Experiment [1] has as its target T1, NDM-1 (Klebsiella pneumoniae, UniProt C7C422).
T1 construct: made in house
In words: 10 minute IC50 β-lactamase inhibition assay (Chromacef hydrolysis). Conditions: 10 min preincubation, 300 μM Chromacef, pH 7.0, 30° C. An excerpt: (§1) A chromogenic cephalosporin, Chromacef, is synthesized and isolated as described by Yu, et al. (Yu S; Vosbeek, A; Corbella, K; Severson, J; Schesser, J; and Sutton, L D. A chromogenic cephalosporin for fJ-lactamase inhibitor screening assays (2012) Analytical Biochemistry, 438, 96-98) and used to monitor β-lactamase activity. β-Lactamase enzymes are isolated from bacteria by methods known to those knowledgeable in the art. A typical assay monitors the hydrolysis of Chromacef via the formation of a species which absorbs maximally at 442 nm (molar extinction coefficient=14,500). Absorption is monitored as a function of time in buffer (either 50 mM, pH 7.0 sodium phosphate or 100 mM, pH 7.0 Trisma buffer supplemented with 100 μM ZnCl2), 100-300 μM Chromacef and 1-3 volume percent DMSO cosolvent at 30° C. using a spectrophotometer having thermal-regulated cuvette holder. The assay is initiated by addition and mixing of an appropriate amount of β-lactamase.
(§2) The 100% activity control is performed as described above using 300 μM Chromacef, 3 volume percent DMSO cosolvent in buffer (either 50 mM, pH 7.0 sodium phosphate or 100 mM, pH 7.0 Trisma buffer supplemented with 100 μM ZnCl2) at 30° C. The reaction is initiated by addition and mixing of an appropriate amount of β-lactamase and the formation of product is followed as a function of time by monitoring the increase in absorbance at 442 nm as a function of time. The reaction is followed through <10% completeness and the initial rate determined via linear least squares analysis where the slope is the initial rate.
(§3) Ten-minute inhibition assays are performed as described above using 50-500 μM inhibitor cephalosporin, 0.5-5 volume percent DMSO cosolvent, and the same amount of enzyme as used in the control assay in buffer (either 50 mM, pH 7.0 sodium phosphate or 100 mM, pH 7.0 Trisma buffer supplemented with 100 μM ZnCl2) at 30° C. The reaction is initiated by after 10 minutes points by the addition and mixing of an appropriate amount of Chromacef to give a 300 μM concentration and the formation of product is followed as a function of time by monitoring the increase in absorbance at 442 nm as a function of time. The reaction is followed through <10% completeness and the initial rate determined via linear least squares analysis where the slope is the initial rate.

For the next experiment, the target named is T2, VIM-2 (Escherichia coli, UniProt Q5U7L7).
T2 construct: made in house
The experiment is described as above. Conditions: 10 min preincubation, 300 μM Chromacef, pH 7.0, 30° C.
Excerpt: as §1, §2, §3

The target in a further experiment is T3, IMP-1 (Serratia marcescens, UniProt P52699).
T3 construct: made in house
Described as above. The conditions noted are these: 10 min preincubation, 300 μM Chromacef, pH 7.0, 30° C.
Excerpt: as §1, §2, §3

The target in experiment [2] is T1, NDM-1. In words: Assay for determining irreversible β-lactamase inhibition (500-fold dilution). The conditions noted are these: FIG. 2. The protocol:
as §2
Inhibition of β-lactamase was performed at a concentration of β-lactamase 500 times greater than used in the control assay, and 50-500 μM cephalosporin inhibitor, buffer (either 50 mM, pH 7.0 sodium phosphate or 100 mM, pH 7.0 Trisma buffer supplemented with 100 μM ZnCl2), 0.5-5 volume percent DMSO cosolvent for various times. Activity assays were performed the same as the control reaction except 2.00 μL of this inhibition solution were substituted for the uninhibited enzyme solution resulting in a 500-fold dilution of inhibitor to eliminate any competitive binding of inhibitor to enzyme.

Another experiment concerns the target T4, KPC-3 (Klebsiella pneumoniae, UniProt Q9F663, H272Y).
T4 construct: made in house
In words: 10 minute IC50 β-lactamase inhibition assay (Chromacef hydrolysis). The conditions noted are these: 10 min preincubation, 300 μM Chromacef, pH 7.0, 30° C.
Excerpt: as §1, §2, §3

T1 sequence (C7C422 29-270, looked up, species assumed): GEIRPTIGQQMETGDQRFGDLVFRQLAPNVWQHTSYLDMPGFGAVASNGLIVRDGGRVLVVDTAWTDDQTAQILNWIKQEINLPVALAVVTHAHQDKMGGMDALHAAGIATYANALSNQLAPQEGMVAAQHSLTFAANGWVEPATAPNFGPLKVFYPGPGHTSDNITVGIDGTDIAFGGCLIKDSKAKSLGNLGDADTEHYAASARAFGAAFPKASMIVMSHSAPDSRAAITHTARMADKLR
T3 sequence (P52699 19-246, looked up, species assumed): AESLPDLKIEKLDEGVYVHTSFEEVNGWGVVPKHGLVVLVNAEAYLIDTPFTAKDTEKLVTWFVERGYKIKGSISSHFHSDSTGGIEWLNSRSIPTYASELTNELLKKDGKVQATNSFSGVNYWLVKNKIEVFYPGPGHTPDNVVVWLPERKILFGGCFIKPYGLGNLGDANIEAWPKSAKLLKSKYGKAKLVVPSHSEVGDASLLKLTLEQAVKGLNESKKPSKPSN
T4 sequence (Q9F663 25-293 H272Y): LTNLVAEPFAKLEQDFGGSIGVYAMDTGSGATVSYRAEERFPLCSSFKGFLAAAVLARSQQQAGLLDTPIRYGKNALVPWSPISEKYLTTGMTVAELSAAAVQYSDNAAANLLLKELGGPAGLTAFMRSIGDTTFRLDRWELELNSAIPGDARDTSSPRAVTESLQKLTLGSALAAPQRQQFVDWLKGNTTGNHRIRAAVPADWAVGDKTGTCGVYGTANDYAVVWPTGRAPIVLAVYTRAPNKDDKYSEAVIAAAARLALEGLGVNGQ

Take `O=C(Cc1ccccc1)NC1C(=O)N2C(C(=O)O)=C(C=Cc3ccc(CCl)cc3)CS[C@H]12` (some centres unmarked) [II-Cl/benzyl, 3-(4-(chloromethyl)styryl)-7-(2-phenylacetamido)-ceph-3-em-4-carboxylic acid]: the results for the IC50 at NDM-1 [1], on VIM-2 and against IMP-1 were 6.4 µM, 10.7 µM and 61.8 µM, respectively.

As to `O=C(Cc1ccccc1)NC1C(=O)N2C(C(=O)O)=C(C=Cc3ccc(CCl)cc3[N+](=O)[O-])CS[C@H]12` (some centres unmarked) [III-Cl/benzyl, 3-(2-nitro-4-(chloromethyl)styryl)-7-(2-phenylacetamido)-ceph-3-em-4-carboxylic acid], the “irreversibility of the inhibition” value at NDM-1 [2] (activity after 500-fold dilution of inhibitor) is reported as “irreversibility of the inhibition”. The “time-dependency of the inhibition” value on NDM-1 [2] (various incubation times) is “time-dependency of the inhibition”. Moreover, the IC50 is 0.584 µM against NDM-1 [1], 0.584 µM on IMP-1 and 0.973 µM on KPC-3.

In general, IC50 refers to the midpoint of a concentration-inhibition curve. Low values mean higher potency, high ones lower potency.
